Test results as given in patent publication US20260041640A1 (INCYCLIX BIO, LLC, priority 2023, published 2026).
Where two headings read alike, the source gives them in different places.

Experiment: First-in-human clinical study: plasma and whole blood PK of INX-315 (oral QD, ASD tablet)
Assay type: in vivo
Conditions: human, plasma, plasma
Description: All INX-315 tablets were taken at approximately the same time(s) each day.
Samples will also be collected pre-dose on Cycle 1 Days 2, 8, 16, and Day 22, and pre-dose on Day 1 of each subsequent cycle.
Standard non-compartmental PK parameters were estimated.
Geometric mean and geometric CV % will be included in the summary statistics.
PK parameters will be summarized descriptively by dosing cohort. AUC and Cmax values will also be presented in scatter plots. Dose proportionality will be assessed for AUC and Cmax using a power model. The 90% CI of the slope for each PK parameter will be estimated from the model and presented in a summary table.
Cohort 1 enrollment of 6 subjects dosed at 100 mg oral QD was completed in October of 2023.
Patients were upgraded to the 200 mg QD dose level and PK/PD plasma parameters were measured (FIG. 18A).
Patients were administered the 200 mg QD and 300 mg QD dose levels and PK/PD plasma parameters were measured.

SMILES: NS(=O)(=O)c1ccc(Nc2ncc3cc4n(c3n2)C2(CCCCC2)C(=O)NN4)cc1 [INX-315]
- concentration at 15 day (oral, 100 mg, 100 mg QD, Day 15 observed, mean of first two patients, read-out: Cmin^free): 9.2 ng/mL
- concentration at 12 h (oral, 100 mg, 100 mg QD, first dose level (Table 5), read-out: C12 hr): 252 ng/mL
- concentration at 24 h (oral, 100 mg, 100 mg QD, first dose level (Table 5), read-out: C24 hr): 177 ng/mL
- Cmax (oral, 100 mg, 100 mg QD, first dose level (Table 5), read-out: Cmax): 388 ng/mL
- AUC (oral, 100 mg, 100 mg QD, removing esophageal cancer patient with low exposure, read-out: Total Area (adjusted AUC)): 2740 ng·h/mL
- concentration at 0.5 h (oral, 200 mg, 200 mg QD (n = 2), 0.5 hr): 69.6 ng/mL
- concentration at 1 h (oral, 200 mg, 200 mg QD (n = 2), 1.0 hr): 109 ng/mL
- concentration at 2 h (oral, 200 mg, 200 mg QD (n = 2), 2.0 hr): 246 ng/mL
- concentration at 6 h (oral, 200 mg, 200 mg QD (n = 2), 6.0 hr): 343 ng/mL
- concentration at 8 h (oral, 200 mg, 200 mg QD (n = 2), 8.0 hr): 374 ng/mL
- concentration at 24 h (oral, 200 mg, 200 mg QD (n = 2), […], read-out: Mean plasma concentration): 141 ng/mL
- AUC (oral, 200 mg, 200 mg QD (n = 2), read-out: Total Area (AUC)): 6260 ng·h/mL
- AUC(0-t) (oral, 200 mg, 200 mg QD, Day 1, Cohort 2, read-out: AUClast, geometric mean): 8940 ng·h/mL
- AUC(0-t) (oral, 200 mg, 200 mg QD, Day 1, Cohort 2, read-out: AUClast, median): 7970 ng·h/mL
- Cmax (oral, 200 mg, 200 mg QD, Day 1, Cohort 2, read-out: Cmax, geometric mean): 590 ng/mL
- Cmax (oral, 200 mg, 200 mg QD, Day 1, Cohort 2, read-out: Cmax, median): 577 ng/mL
- Tmax (oral, 200 mg, 200 mg QD, Day 1, Cohort 2, read-out: Tmax, median): 8 h
- Tmax (oral, 200 mg, 200 mg QD, Day 1, individual subjects, read-out: Tmax): 8 h
- half-life (oral, 200 mg, 200 mg QD, Day 1, individual subjects, read-out: t1/2 (converted)): 1090 min
- AUC(0-t) (oral, 200 mg, 200 mg QD, Day 15, Cohort 2, read-out: AUClast, geometric mean): 12200 ng·h/mL
- AUC(0-t) (oral, 200 mg, 200 mg QD, Day 15, Cohort 2, read-out: AUClast, median): 13700 ng·h/mL
- Cmax (oral, 200 mg, 200 mg QD, Day 15, Cohort 2, read-out: Cmax, geometric mean): 922 ng/mL
- Cmax (oral, 200 mg, 200 mg QD, Day 15, Cohort 2, read-out: Cmax, median): 888 ng/mL
- Tmax (oral, 200 mg, 200 mg QD, Day 15, Cohort 2, read-out: Tmax, median): 6 h
- half-life (oral, 200 mg, 200 mg QD, Day 15, Cohort 2, read-out: t1/2, geometric mean (converted)): 648 min
- half-life (oral, 200 mg, 200 mg QD, Day 15, Cohort 2, read-out: t1/2, median (converted)): 630 min
- Cmax (oral, 200 mg, 200 mg QD, Day 15, individual subjects, read-out: Cmax): 779 ng/mL
- half-life (oral, 200 mg, 200 mg QD, Day 15, individual subjects, read-out: t1/2 (converted)): 502 min
- AUC (oral, 300 mg, Cohort 3 (300 mg QD), Day 1, individual subjects, read-out: AUC Plasma): 8200 ng·h/mL
- AUC (oral, 300 mg, Cohort 3 (300 mg QD), Day 15, Tlast = 6 hours, read-out: AUC Plasma): 4570 ng·h/mL
- AUC (oral, 300 mg, Cohort 3 (300 mg QD), Day 15, individual subjects, read-out: AUC Plasma): 5820 ng·h/mL
- AUC(0-t) (oral, 300 mg, 300 mg QD cohort, Day 1, geometric mean, read-out: AUClast, Geometric Mean): 9550 ng·h/mL
- Cmax (oral, 300 mg, 300 mg QD cohort, Day 1, geometric mean, read-out: Cmax, Geometric Mean): 628 ng/mL
- AUC(0-t) (oral, 300 mg, 300 mg QD cohort, Day 1, individual subjects, read-out: AUClast): 10200 ng·h/mL
- Cmax (oral, 300 mg, 300 mg QD cohort, Day 1, individual subjects, read-out: Cmax): 727 ng/mL
- Tmax (oral, 300 mg, 300 mg QD cohort, Day 1, individual subjects, read-out: Tmax): 8 h
- half-life (oral, 300 mg, 300 mg QD cohort, Day 1, individual subjects, read-out: t1/2 (converted)): 1040 min
- AUC(0-t) (oral, 300 mg, 300 mg QD cohort, Day 1, median, read-out: AUClast, Median): 10200 ng·h/mL
- Cmax (oral, 300 mg, 300 mg QD cohort, Day 1, median, read-out: Cmax, Median): 615 ng/mL
- Tmax (oral, 300 mg, 300 mg QD cohort, Day 1, median, read-out: Tmax, Median): 8 h
- AUC(0-t) (oral, 300 mg, 300 mg QD cohort, Day 15, individual subjects, read-out: AUClast): 5590 ng·h/mL
- Cmax (oral, 300 mg, 300 mg QD cohort, Day 15, individual subjects, read-out: Cmax): 568 ng/mL
- Tmax (oral, 300 mg, 300 mg QD cohort, Day 15, individual subjects, read-out: Tmax): 1 h
- half-life (oral, 300 mg, 300 mg QD cohort, Day 15, individual subjects, read-out: t1/2 (converted)): 554 min
- AUC(0-t) (po, 100 mg, 100 mg QD cohort, Day 1, geometric mean, read-out: AUClast, Geometric Mean): 2020 ng·h/mL
- Cmax (po, 100 mg, 100 mg QD cohort, Day 1, geometric mean, read-out: Cmax, Geometric Mean): 148 ng/mL
- half-life (po, 100 mg, 100 mg QD cohort, Day 1, geometric mean, read-out: t1/2, Geometric Mean (converted)): 786 min
- half-life (po, 100 mg, 100 mg QD cohort, Day 1, individual subjects, read-out: t1/2 (converted)): 690 min
- AUC(0-t) (po, 100 mg, 100 mg QD cohort, Day 1, median, read-out: AUClast, Median): 2280 ng·h/mL
- Cmax (po, 100 mg, 100 mg QD cohort, Day 1, median, read-out: Cmax, Median): 187 ng/mL
